From the supplement of paper PMC10307832

Legend:
Test in all cases: relative viability (nuclei count vs DMSO), 5 days (fraction); higher = more cells survive
[1] = compound: CC1=CC(=CC=C1)NC2=NC(=CS2)C3=CC=NC=C3 + CS(=O)(=O)N1CCN(Cc2cc3nc(-c4cccc5[nH]ncc45)nc(N4CCOCC4)c3s2)CC1 [Pictilisib] (partner 1 µM)
Outline: (§1)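 Values are medians from duplicate plates. Each reflects relative viability, defined as the nuclei count of treated wells over that of vehicle wells. Lung cancer cell lines in 1536-well plates were pin-tool dosed one day after seeding with one drug alone or with a fixed anchor-drug dose plus five library-drug doses (not always all listed) in √10 steps, then fixed, stained and imaged at 4× after 5 days.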

Masitinib + OSI-027 = compound: Cc1ccc(NC(=O)c2ccc(CN3CCN(C)CC3)cc2)cc1Nc1nc(-c2cccnc2)cs1 [Masitinib] + COc1cccc2cc(-c3nc([C@H]4CC[C@H](C(=O)O)CC4)n4ncnc(N)c34)[nH]c12 [OSI-027] (partner 0.5 µM)
Outline: as §1

[2] = compound: CC1=CC(=CC=C1)NC2=NC(=CS2)C3=CC=NC=C3 + CCNC(=O)c1noc(-c2cc(C(C)C)c(O)cc2O)c1-c1ccc(CN2CCOCC2)cc1 [Luminespib] (partner 0.01 µM)
Outline: as §1

Masitinib + AZD7762 = compound: Cc1ccc(NC(=O)c2ccc(CN3CCN(C)CC3)cc2)cc1Nc1nc(-c2cccnc2)cs1 [Masitinib] + NC(=O)Nc1cc(-c2cccc(F)c2)sc1C(=O)N[C@H]1CCCNC1 [AZD7762] (partner 0.2 µM)
Outline: as §1

Row | Cell Line | relative viability ([1]; first compound 0.08 µM) | relative viability ([1]; first compound 0.253 µM) | relative viability ([1]; first compound 0.8 µM) | relative viability ([1]; first compound 2.53 µM) | relative viability ([1]; first compound 8 µM) | relative viability (Masitinib + OSI-027; first compound 0.01 µM) | relative viability (Masitinib + OSI-027; first compound 0.03162 µM) | relative viability (Masitinib + OSI-027; first compound 0.1 µM) | relative viability (Masitinib + OSI-027; first compound 1 µM) | relative viability ([2]; first compound 0.08 µM) | relative viability ([2]; first compound 0.253 µM) | relative viability ([2]; first compound 0.8 µM) | relative viability ([2]; first compound 2.53 µM) | relative viability ([2]; first compound 8 µM) | relative viability (Masitinib + AZD7762; first compound 0.01 µM) | relative viability (Masitinib + AZD7762; first compound 0.03162 µM) | relative viability (Masitinib + AZD7762; first compound 0.1 µM) | relative viability (Masitinib + AZD7762; first compound 0.3162 µM) | relative viability (Masitinib + AZD7762; first compound 1 µM) | relative viability (Masitinib + OSI-027; first compound 0.3162 µM)
1 | 201T | 0.547 | 0.537 | 0.598 | 0.565 | 0.602 | 0.792 | 0.534 | 0.745 | 0.729 | 1.08 | 0.993 | 1 | 0.95 | 0.849 | 0.516 | 0.7 | 0.528 | 0.64 | 0.573 | 
2 | A549 | 0.399 | 0.472 | 0.524 | 0.525 | 0.418 |  |  |  |  |  |  |  |  |  |  |  |  |  |  | 
3 | A-427 | 0.633 | 0.71 | 0.692 |  | 0.655 |  | 0.509 |  | 0.456 | 0.738 | 0.916 | 0.918 | 0.729 | 0.866 | 0.775 | 0.657 | 0.689 | 0.744 | 0.559 | 0.531
4 | ABC-1 | 0.48 | 0.665 | 0.686 | 0.634 | 0.486 | 0.432 | 0.52 | 0.516 | 0.38 | 0.447 | 0.766 | 0.492 | 0.676 | 0.647 | 0.711 | 0.901 | 0.743 | 0.493 | 0.801 | 0.334
5 | BEN | 0.543 | 0.528 | 0.585 | 0.446 | 0.543 | 0.306 |  | 0.325 | 0.436 | 0.424 | 0.174 | 0.488 | 0.267 | 0.356 | 0.849 | 0.64 | 0.882 | 0.607 | 0.77 | 0.26
6 | CAL-12T | 0.286 |  | 0.557 | 0.261 | 0.388 | 0.682 | 0.554 | 0.705 | 0.536 | 0.399 | 0.355 | 0.335 | 0.513 | 0.29 | 0.586 | 0.639 | 0.606 | 0.605 | 0.498 | 0.404
7 | COR-L23 | 0.539 | 0.57 | 0.451 | 0.714 | 0.661 | 0.893 | 0.737 | 0.776 | 0.738 | 0.603 | 0.648 | 0.564 | 0.659 | 0.662 |  |  |  |  |  | 0.751
8 | COR-L 105 | 0.322 | 0.427 | 0.374 | 0.413 | 0.393 | 0.682 | 0.705 | 0.764 | 0.533 | 0.727 | 0.769 | 0.755 | 0.591 | 0.665 |  |  |  |  |  | 0.613
9 | Calu-6 | 0.796 | 0.718 | 0.659 | 0.815 | 0.803 |  |  |  |  |  |  |  |  |  |  |  |  |  |  | 
10 | ChaGo-K-1 | 0.697 | 0.447 | 0.691 | 0.36 | 0.639 | 0.779 | 0.537 | 0.603 | 0.538 | 0.525 | 0.605 | 0.57 | 0.589 | 0.372 | 0.928 | 0.916 | 0.946 | 0.823 | 0.806 | 0.695
11 | EBC-1 | 0.187 | 0.216 | 0.236 | 0.303 | 0.211 |  |  |  |  |  |  |  |  |  |  |  |  |  |  | 
12 | EKVX | 0.374 | 0.391 | 0.344 | 0.32 | 0.346 |  | 0.533 | 0.566 | 0.599 | 0.854 | 0.835 | 0.892 | 0.819 | 0.765 | 0.783 | 0.824 | 0.71 |  | 0.637 | 0.673
13 | EMC-BAC-2 | 0.449 | 0.496 | 0.53 | 0.48 | 0.554 | 0.379 | 0.381 | 0.379 | 0.354 | 1.15 | 1.23 | 1.15 | 1.1 | 1.13 | 0.862 | 1.01 | 1.03 | 1.05 | 1.01 | 0.379
14 | EPLC-272H | 0.265 |  | 0.292 |  | 0.344 | 0.257 | 0.274 | 0.281 | 0.286 | 0.194 | 0.359 | 0.218 | 0.245 | 0.389 | 0.245 | 0.206 | 0.211 | 0.258 | 0.161 | 0.315
15 | H3255 | 0.535 | 0.552 | 0.542 | 0.526 | 0.408 | 0.588 | 0.652 | 0.617 | 0.538 | 0.902 | 0.681 | 0.905 | 0.702 | 0.826 | 0.581 | 0.948 | 0.764 | 0.705 | 0.885 | 0.504
16 | HARA | 0.343 | 0.354 | 0.367 | 0.21 | 0.374 |  | 0.44 | 0.521 | 0.315 | 0.494 | 0.872 | 0.496 | 0.684 | 0.359 | 0.444 | 0.267 | 0.216 |  | 0.143 | 0.384
17 | HCC-15 | 0.644 | 0.665 | 0.684 | 0.692 | 0.701 | 0.635 | 0.68 | 0.641 | 0.629 | 0.386 | 0.299 | 0.475 | 0.31 | 0.274 | 0.794 | 1.04 | 1.02 | 0.422 | 1.24 | 0.588
18 | HCC-44 | 0.423 | 0.429 | 0.462 | 0.485 | 0.486 | 0.526 | 0.497 | 0.531 | 0.59 | 0.974 | 0.939 | 1.06 | 1.01 | 1.09 | 0.834 | 0.99 | 1.02 | 0.958 | 1.04 | 0.392
19 | HCC-78 | 0.204 | 0.198 | 0.261 | 0.219 | 0.22 | 0.36 | 0.337 | 0.364 | 0.335 |  |  |  |  |  | 0.509 | 0.524 | 0.71 | 0.454 | 0.572 | 0.337
